Test results: ChEMBL document CHEMBL1201862, “PubChem BioAssay data set” (2004)
Calls of active or inactive are those of the source.

Legend:
[1] = molecular target: Cytochrome P450 2D6 (Homo sapiens, UniProt P10635);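 also: CYP2D6 member of a cytochrome P450 panel assay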
[2] = molecular target: Cytochrome P450 2C9 (Homo sapiens, UniProt P11712)
[3] = molecular target: Cytochrome P450 2C19 (Homo sapiens, UniProt P33261); experiment: Cytochrome panel assay with activity outcomes. Panel member name: p450-cyp2c19 Compounds with AC50 equal or less than 10 uM are considered active; format: functional
[4] = Trypanosoma cruzi growth suppression in host cells – NIH3T3 host cells, beta-gal luminescence, confirmation (AID 2044); format: functional, cell-based;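 also: intracellular parasites grown in NIH/3T3 mouse fibroblasts as host cells; luminescent beta-galactosidase reporter signal from transgenic T. cruzi replicating inside host cells; inhibitors lower the luminescence signal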
[5] = NIH3T3 cell viability loss – ATP luminescence, mouse fibroblasts, counter-screen, dose response (AID 2010); format: functional, cell-based;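 also: cells exposed to compound for about 90 hours before reading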
[6] = system: Streptococcus sp. 'group A'; experiment: Streptococcus pyogenes SK(-)GAS viability under kanamycin – luminescence, BacTiterGlo, confirmation, counter-screen for streptokinase expression inhibitor project, dose response (AID 1900); format: functional, organism-based
[7] = molecular target: T1, Streptokinase A (Streptococcus pyogenes serotype M1, UniProt P10520); experiment: viability-normalized secreted streptokinase activity reduction – plasminogen activation absorbance, OD405, dose response (AID 1914); format: functional, Streptococcus pyogenes M1 GAS;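 also: secreted streptokinase activity via plasminogen activation per viability signal from cell pellet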
T1 sequence (P10520 whole entry): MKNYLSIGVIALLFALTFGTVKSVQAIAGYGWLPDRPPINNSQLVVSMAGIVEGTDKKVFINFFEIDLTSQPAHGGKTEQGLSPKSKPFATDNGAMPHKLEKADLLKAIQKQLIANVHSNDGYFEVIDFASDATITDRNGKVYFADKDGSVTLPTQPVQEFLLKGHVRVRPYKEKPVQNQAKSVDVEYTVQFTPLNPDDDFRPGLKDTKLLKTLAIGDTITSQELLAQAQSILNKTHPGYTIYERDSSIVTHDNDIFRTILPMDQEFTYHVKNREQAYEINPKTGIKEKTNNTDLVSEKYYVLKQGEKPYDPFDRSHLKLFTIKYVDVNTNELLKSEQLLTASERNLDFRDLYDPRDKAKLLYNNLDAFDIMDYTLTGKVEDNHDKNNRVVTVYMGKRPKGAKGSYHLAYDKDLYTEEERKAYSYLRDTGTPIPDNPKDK

[8] = system: Streptococcus; experiment: GAS UMAA2166 growth inhibition – luminescence, BacTiterGlo, counter-screen for streptokinase expression inhibitor project, dose response (AID 1915); format: functional, organism-based;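 also: potency for reduction of bacterial viability or growth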
[9] = molecular target: Cytochrome P450 3A4 (Homo sapiens, UniProt P08684);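 also: CYP3A4 tested as one member of a cytochrome P450 panel screen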
Chain of Cytochrome P450 3A4 (P08684 whole entry): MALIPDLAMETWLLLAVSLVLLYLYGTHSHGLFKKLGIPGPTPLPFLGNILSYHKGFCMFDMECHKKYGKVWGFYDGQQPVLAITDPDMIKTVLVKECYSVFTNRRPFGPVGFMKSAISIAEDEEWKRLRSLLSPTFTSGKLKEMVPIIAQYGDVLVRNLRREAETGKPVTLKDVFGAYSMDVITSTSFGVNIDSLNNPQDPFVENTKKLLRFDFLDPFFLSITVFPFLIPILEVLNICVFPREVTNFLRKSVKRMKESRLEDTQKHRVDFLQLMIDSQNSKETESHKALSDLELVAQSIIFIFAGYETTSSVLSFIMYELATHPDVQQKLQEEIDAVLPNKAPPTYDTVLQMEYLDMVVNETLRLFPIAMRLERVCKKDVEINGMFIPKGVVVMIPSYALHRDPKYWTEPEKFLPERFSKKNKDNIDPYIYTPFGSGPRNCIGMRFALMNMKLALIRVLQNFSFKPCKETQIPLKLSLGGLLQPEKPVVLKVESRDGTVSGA

Chain of Cytochrome P450 2C9 (P11712 whole entry): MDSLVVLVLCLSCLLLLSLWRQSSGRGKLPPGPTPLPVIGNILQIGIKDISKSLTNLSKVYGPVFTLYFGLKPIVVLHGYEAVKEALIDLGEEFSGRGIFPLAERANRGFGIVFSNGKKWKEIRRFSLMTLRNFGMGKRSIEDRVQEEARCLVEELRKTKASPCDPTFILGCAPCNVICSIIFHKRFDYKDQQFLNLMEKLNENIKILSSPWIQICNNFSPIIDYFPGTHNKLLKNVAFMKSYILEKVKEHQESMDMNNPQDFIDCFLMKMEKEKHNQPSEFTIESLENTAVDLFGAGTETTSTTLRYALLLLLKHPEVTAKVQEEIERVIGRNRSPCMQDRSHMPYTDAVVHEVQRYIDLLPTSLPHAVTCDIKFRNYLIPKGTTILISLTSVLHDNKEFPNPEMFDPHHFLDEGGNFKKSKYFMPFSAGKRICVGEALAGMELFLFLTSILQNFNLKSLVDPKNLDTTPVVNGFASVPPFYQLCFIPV
Chain of Cytochrome P450 2D6 (P10635 whole entry): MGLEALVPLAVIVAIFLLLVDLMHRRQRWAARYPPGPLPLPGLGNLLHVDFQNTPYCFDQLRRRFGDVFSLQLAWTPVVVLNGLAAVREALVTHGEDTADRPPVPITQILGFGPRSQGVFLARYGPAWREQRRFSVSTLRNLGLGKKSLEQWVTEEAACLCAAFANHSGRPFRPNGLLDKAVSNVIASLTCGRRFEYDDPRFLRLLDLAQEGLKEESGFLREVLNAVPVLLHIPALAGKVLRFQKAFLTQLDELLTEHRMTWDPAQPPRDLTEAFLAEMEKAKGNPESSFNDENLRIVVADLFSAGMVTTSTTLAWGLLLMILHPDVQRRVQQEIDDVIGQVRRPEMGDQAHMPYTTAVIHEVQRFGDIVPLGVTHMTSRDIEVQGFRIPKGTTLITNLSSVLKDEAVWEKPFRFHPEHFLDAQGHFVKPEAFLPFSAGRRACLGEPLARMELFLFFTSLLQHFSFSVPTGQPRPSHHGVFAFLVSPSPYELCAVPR
Chain of Cytochrome P450 2C19 (P33261 whole entry): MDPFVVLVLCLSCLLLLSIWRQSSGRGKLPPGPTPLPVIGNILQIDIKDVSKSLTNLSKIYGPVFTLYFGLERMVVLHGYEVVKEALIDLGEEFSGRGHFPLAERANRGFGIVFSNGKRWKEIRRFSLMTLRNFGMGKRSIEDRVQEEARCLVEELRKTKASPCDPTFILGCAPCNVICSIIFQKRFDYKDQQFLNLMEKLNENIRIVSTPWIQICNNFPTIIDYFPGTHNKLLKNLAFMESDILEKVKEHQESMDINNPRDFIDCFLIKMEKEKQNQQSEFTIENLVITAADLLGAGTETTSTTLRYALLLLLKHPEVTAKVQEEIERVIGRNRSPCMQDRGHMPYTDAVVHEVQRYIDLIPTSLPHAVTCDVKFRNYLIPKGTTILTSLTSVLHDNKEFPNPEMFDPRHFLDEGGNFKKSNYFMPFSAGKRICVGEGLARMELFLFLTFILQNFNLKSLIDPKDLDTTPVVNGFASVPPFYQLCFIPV

Compound: CCC(C)(C)NC(=NC#N)Nc1cccnc1
- AC50 [1]: 39.8 µM (inconclusive)

Compound: Cc1ccc2c(c1)C(=O)[C@@]1(O)CCN(c3ccccc3)C1=N2
- AC50 [1]: 39.8 µM (inconclusive)

Compound: COc1cccc(Cn2c(=O)c(-c3cccs3)nc3cnc(N4CCOCC4)nc32)c1
- AC50 [2]: 25.1 µM (inconclusive)

Compound: Cn1cccc1C(=O)N1CCC[C@@]2(CCN(Cc3cc(C(F)(F)F)cc(C(F)(F)F)c3)C2)C1
- AC50 [2]: 39.8 µM (inconclusive)
- AC50 ([3]; read-out: AC50): 39.8 µM (inconclusive)

Compound: CCN(CC)S(=O)(=O)c1cccc(C(=O)/C=C2/N(C)c3ccccc3C2(C)C)c1
- EC50 [4]: 0.739 µM (active)
- EC50 [5]: > 60 µM (inconclusive)

Compound: Cc1cc(Nc2ccccc2)nn1C(=O)c1ccc(Br)cc1
- EC50 [6]: 20.6 µM (active)
- EC50 [7]: > 150 µM (not active)
- EC50 [8]: > 150 µM (not active)

Compound: COc1ccc(COc2cc(-c3cccc(OC)c3)nc3ccc(NC(C)=O)cc23)cc1
- EC50 [4]: 0.728 µM (active)
- EC50 [5]: > 60 µM (not active)

Compound: C=CCn1c(=O)c(C(=O)NCc2ccccc2)c(O)c2ccccc21
- EC50 [6]: 20.4 µM (active)
- EC50 [7]: 42.2 µM (active)
- EC50 [8]: > 150 µM (not active)

Compound: O=C(C[C@H](c1ccccc1)c1c(O)c2ccccc2oc1=O)c1ccccc1
- AC50 [9]: 3.16 µM (inconclusive)

Compound: CC(c1ccccc1C(O)c1ccccc1)N(C)C (stereo not drawn)
- AC50 [2]: 0.0355 µM (inconclusive)

Compound: CCCCSc1ccc2nc(-c3ccc(C#N)cc3)cn2c1
- EC50 [6]: 13.1 µM (active)
- EC50 [7]: > 150 µM (not active)
- EC50 [8]: 14.4 µM (active)

Compound: COc1ccc(COC2OC[C@]3(C)[C@H]4C5=C(CN3C(=O)OC(C)(C)C)[C@H](C)C(CO)C(CO)C5CC[C@@H]24)cc1 (stereo partly drawn)
- AC50 ([3]; read-out: AC50): 39.8 µM (inconclusive)

Compound: COc1cc(-c2cc(C(=O)Nc3ccc(S(=O)(=O)NCc4ccco4)cc3)c3ccccc3n2)cc(OC)c1OC
- EC50 [4]: 1.62 µM (active)
- EC50 [5]: > 60 µM (not active)

Compound: COc1ccc(S(=O)(=O)Nc2ccc(F)cc2)c(C)c1C
- AC50 [1]: 0.447 µM (inconclusive)

Compound: CCN(CC)S(=O)(=O)c1ccc(N2CCOCC2)c(NC(=O)C2CSC3(C)CCC(=O)N23)c1 (stereo not drawn)
- EC50 [6]: > 150 µM (not active)
- EC50 [7]: > 150 µM (not active)
- EC50 [8]: > 150 µM (not active)

Compound: CC1(C)CC(=O)C2=C(C1)Oc1nc3ccccc3cc1C2C(C#N)C#N (stereo not drawn)
- AC50 [1]: 0.112 µM (inconclusive)

Compound: COc1ccc(S(=O)(=O)NCc2ccc(C(=O)N3CCN(c4ccccn4)CC3)cc2)cc1
- AC50 ([3]; read-out: AC50): 7.94 µM (inconclusive)

Compound: O=C(Nc1ccccc1)N1CCC2(CC1)CCN(S(=O)(=O)c1ccccc1)CC2
- AC50 [1]: 39.8 µM (inconclusive)

Compound: CN(C)c1nc(N)ncc1-c1ccc(Oc2ccccc2)cc1
- EC50 [4]: 0.231 µM (active)
- EC50 [5]: > 60 µM (not active)

Compound: COc1ccc(NC(=O)CN(C)C(=O)/C=C/c2cn(-c3ccccc3)nc2-c2ccc(C)cc2)cc1
- EC50 [4]: 2.17 µM (active)
- EC50 [7]: > 150 µM (not active)
- EC50 [8]: 114 µM (active)
- EC50 [5]: > 60 µM (not active)

Compound: N[C@H](Cc1ccc2oc3cc(=O)c4ccccc4c-3nc2c1)C(=O)O
- AC50 [9]: 3.98 µM (inconclusive)

Compound: CC(=O)N1CCc2cc(S(=O)(=O)N3CCc4ccccc43)ccc21
- EC50 [6]: > 150 µM (not active)
- EC50 [7]: > 150 µM (not active)
- EC50 [8]: > 150 µM (not active)

Compound: O=C(CCN1C(=O)/C(=C/c2ccccc2)SC1=S)NCCCN1CCOCC1
- EC50 [4]: 2.62 µM (active)
- EC50 [5]: 8.78 µM (active)

Compound: Cc1ccc(S(=O)(=O)N(CC(=O)Nc2cccc(N(C)S(C)(=O)=O)c2)c2ccc(Cl)c(Cl)c2)cc1
- EC50 [4]: 2.14 µM (active)
- EC50 [5]: > 60 µM (not active)

Compound: Cc1nc2cnc(N3CCNCC3)nc2n(CCc2ccccc2)c1=O
- AC50 [2]: 39.8 µM (inconclusive)

Compound: CO[C@@H]1COC(=O)[C@@H](CCSC)NC(=O)C/C=C\[C@@H](C)COC(=O)CCC[C@H]1C
- AC50 [9]: 3.98 µM (inconclusive)

Compound: CCOc1ccc(CC(C(N)=O)C(N)=O)cc1CN(C)C
- AC50 ([3]; read-out: AC50): 22.4 µM (inconclusive)
- AC50 [1]: 17.8 µM (inconclusive)

Compound: O=C1c2ccccc2CCC12N=NCC2c1ccc(Br)cc1 (stereo not drawn)
- EC50 [6]: 22.6 µM (active)
- EC50 [7]: 23.7 µM (active)
- EC50 [8]: > 150 µM (not active)

Compound: c1ccc2c(c1)C(=NC1CCCCC1)N=C2NC1CCCCC1
- EC50 [4]: 1.27 µM (active)
- EC50 [5]: > 60 µM (not active)

Compound: O=P(O)(CCc1ccccc1)C(O)c1ccccc1 (stereo not drawn)
- AC50 [1]: 35.5 µM (inconclusive)

Compound: COc1ccc(CCNC(=O)c2cccc(NS(=O)(=O)c3ccccc3F)c2)cc1OC
- EC50 [6]: > 150 µM (not active)
- EC50 [7]: > 150 µM (not active)
- EC50 [8]: > 150 µM (not active)

Compound: CC1=C(C#N)c2nc(N)c(C#N)c(C)c2/C1=C\c1ccc(C)cc1
- EC50 [6]: 4.38 µM (active)
- EC50 [7]: 12.3 µM (active)
- EC50 [8]: > 150 µM (not active)

Compound: CN(C)C(=O)CN(c1ccc2c(c1)OCO2)S(C)(=O)=O
- AC50 [2]: 0.178 µM (inconclusive)

Compound: Cc1ccc(OCCn2cnc3cc([N+](=O)[O-])ccc3c2=O)cc1
- EC50 [4]: 0.366 µM (active)
- EC50 [5]: > 30 µM (not active)

Compound: OC[C@@H]1O[C@@H](O)[C@H](/N=C\c2ccc3c(c2)OCO3)[C@@H](O)[C@@H]1O
- AC50 [3]: inconclusive

Compound: COCC(=O)N1CCC2(CCCN(c3ccncc3)C2)CC1
- AC50 [9]: 25.1 µM (inconclusive)

Compound: N[C@H]1C[C@H]1c1ccccc1
- AC50 [2]: 12.6 µM (inconclusive)
- AC50 [1]: 12.6 µM (inconclusive)

Compound: CN(C)C(=O)c1ccc(-c2cncnc2NCc2cccs2)cc1
- AC50 [1]: 39.8 µM (inconclusive)

Compound: COCCn1c(C(=O)N2CCCC2)cc2c1C[C@H]1CN(C(=O)c3ccccc3)[C@@](Cc3ccc(OC)cc3)(C(=O)OC)[C@@H]21
- AC50 [2]: 39.8 µM (inconclusive)
- AC50 ([3]; read-out: AC50): 39.8 µM (inconclusive)

Compound: C[C@@H](C[C@@H](O)[C@H](O)C(C)(C)O)[C@@H]1CC[C@]2(C)C3=CC[C@H]4C(C)(C)C(=O)CC[C@]4(C)[C@H]3CC[C@@]12C
- EC50 [6]: 3.13 µM (active)
- EC50 [7]: > 150 µM (not active)
- EC50 [8]: 5.03 µM (active)

Compound: COc1ccc(NC(=O)CCNS(=O)(=O)c2ccc3c(c2)CCC(=O)N3)cc1
- AC50 [2]: 4.47 µM (inconclusive)

Compound: COc1cc(C(=O)OC(C)C(=O)Nc2ccc3c(c2)OCO3)ccc1OCc1c(C)noc1C (stereo not drawn)
- AC50 [1]: 28.2 µM (inconclusive)

Compound: CN(C)c1ncnc2ccc(-c3ccccc3C(F)(F)F)cc12
- AC50 [9]: 10 µM (inconclusive)
- AC50 [1]: 15.8 µM (inconclusive)

Compound: COc1ccc2c3ncn(CCc4c[nH]cn4)c(O)c-3nc2c1
- EC50 [6]: > 150 µM (not active)
- EC50 [7]: > 150 µM (not active)
- EC50 [8]: > 150 µM (not active)

Compound: O=S(=O)(c1ccccc1)N1CCC2(CCCN(Cc3nccs3)C2)CC1
- AC50 [3]: inconclusive

Compound: COc1ccc(-n2c(=O)c(-c3cccc(F)c3)nc3cncnc32)cc1
- AC50 ([3]; read-out: AC50): 31.6 µM (inconclusive)

Compound: Cc1nc2sccc2c(=O)n1-c1ccccc1Cl
- AC50 [1]: 14.1 µM (inconclusive)

Compound: O=[N+]([O-])c1cc(F)c(N2CCOCC2)cc1N1CCCCC1
- AC50 [9]: 17.8 µM (inconclusive)

Compound: COc1ccc(C(=O)C2CCCN(Cc3c(C)[nH]c4ccccc34)C2)c(OC)c1 (stereo not drawn)
- EC50 [4]: 0.299 µM (active)
- EC50 [5]: > 60 µM (not active)

Compound: C=CCc1cc(/C=C2/NC(=O)N(CC)C2=O)cc(OCC)c1OCc1ccc(C(=O)O)cc1
- EC50 [6]: 12.5 µM (active)
- EC50 [7]: > 150 µM (not active)
- EC50 [8]: 105 µM (active)

Compound: COc1ccc2c(c1)-c1c(sn(-c3ccc(OC)c(OC)c3)c1=S)C(C)(C)N2
- AC50 [2]: 5.01 µM (inconclusive)

Compound: O=C(CSc1ccc(Cl)cc1)NC1=NN(c2ccccc2)C(=O)C1
- EC50 [6]: 7.47 µM (active)
- EC50 [7]: 9.33 µM (inconclusive)
- EC50 [8]: 7.17 µM (active)

Compound: Cc1cc(NCCO)c2ccccc2n1
- AC50 ([3]; read-out: AC50): 39.8 µM (inconclusive)

Compound: CC(C)C(NC(=O)OCc1ccccc1)C(=O)O (stereo not drawn)
- AC50 [2]: 11.2 µM (inconclusive)

Compound: NC(=O)C1(N2CCCCC2)CCN(C(=O)c2ccc(-n3cnnn3)cc2)CC1
- AC50 [1]: 1.58 µM (inconclusive)

Compound: Cc1ccc(C(=O)/C=C(\O)C(=O)NC23CC4CC(CC(C4)C2)C3)cc1
- EC50 [6]: 4.07 µM (active)
- EC50 [7]: > 150 µM (not active)
- EC50 [8]: > 150 µM (not active)

Compound: O/N=C/c1ccccc1OCc1ccc(Cl)cc1
- AC50 ([3]; read-out: AC50): 2.82 µM (inconclusive)
- AC50 [1]: 22.4 µM (inconclusive)

Compound: O=C(N/N=C/c1ccco1)c1ccccn1
- AC50 [3]: inconclusive

Compound: O=C(CN(c1ccc(Cl)c(C(F)(F)F)c1)S(=O)(=O)c1ccccc1)N/N=C/c1cccc2c1OCCO2
- EC50 [6]: 8.38 µM (active)
- EC50 [7]: 32.9 µM (active)
- EC50 [8]: 95.3 µM (active)

Compound: O=C(CN1CCCCCCC1)N/N=C/c1ccc([N+](=O)[O-])o1
- EC50 [4]: 1.34 µM (active)
- EC50 [5]: > 60 µM (not active)

Compound: O=S(=O)(c1cnccc1N1CCN(/N=C/c2ccccc2)CC1)N1CCCCC1
- AC50 [1]: 25.1 µM (inconclusive)
